Several values for one entry are separate records, joined by “and”; a condition that tells them apart may be missing. Equal values may be shown once. Entries after “also recorded” stand apart in the source; their conditions may differ. Read-outs that look alike come from different tables or passages of the source. One block for each molecule: values may come before it.
What was measured:
[1] = target: T1, MPO from human neutrophils (Homo sapiens, UniProt P05164); experiment: Taurine N-chloramine/TMB assay of MPO-derived HOCl; assay type: biochemical; settings: for IC50: read-out: IC50, inhibition of MPO chlorinating activity
T1 construct: MPO from human neutrophils was obtained from Athens Research and Technology (Athens, GA); purchased Athens Research and Technology (Athens, GA); host or cells: human neutrophils (natural source)
Procedure: (§1) The performance of AM and its derivatives in inhibition of the MPO chlorinating activity was evaluated using dose–response curves. The half maximal inhibitory concentration (IC50) values were determined on the basis of three independent measurements using a dose–response fitting mode implemented in OriginPro 2020 (OriginLab Corp.) software. […] MPO stock solution was prepared according to the supplier’s instruction by dissolving lyophilized powder of MPO in distilled water and was stored at 6 °C. The desired MPO activity was obtained by dilution of the stock solution with phosphate buffer (50 mM, pH 7.4) containing sodium chloride (0.1 M).
The diluted MPO solution was pipetted directly into the 96-well plate (1.45 μL). […] The prepared 96-well plate was incubated for 5 min, and the reaction was started by the addition of 110 μL per well of 20 μM H2O2 solution in water. The plate was incubated for another 5 min, and then 200 μL of the incubation mixtures was transferred to another 96-well plate prefilled with catalase solution (10 kU/mL, 2 μL per well) to remove unreacted hydrogen peroxide and to stop the reaction. Next, 50 μL per well of developing reagent composed of 2 mM TMB, 100 μM potassium iodide, and 0.32 M acetate buffer (pH 5.4) was added, and absorbance at 645 nm was measured by a Varioscan LUX (Thermo Fisher Scientific) plate reader controlled by SkanIt 6.0.2 software. The typical chlorinating activity of MPO during the inhibition experiments was 5 nM/s HOCl as determined using a CBA oxidation-based assay.[18] The concentration of H2O2 in the stock solution was determined spectrophotometrically at 240 nm using the molar extinction coefficient ε = 43.6 M^–1 cm^–1. The chemical structures of the TMB and CBA probes, along with their oxidation products, are presented in Supplementary Figure S5.
The MPO inhibitory activity of AM was compared with its two synthesized boronated derivatives (Figure 1). […] The resulting N-chloramine is then quantified in a reaction with N,N,N′,N′-tetramethylbenzidine catalyzed by potassium iodide.[20] […]

[2] = target: T1, MPO from human neutrophils; experiment: NBD-TM oxidation assay of MPO-derived HOCl; assay type: biochemical; settings: for IC50: NBD-TM 20 μM, MPO 0.1 nM, H2O2 10 μM, NaCl 0.1 M, pH 7.4, 5 min, read-out: IC50, inhibition of MPO chlorinating activity
Procedure: as §1
MPO-derived HOCl was monitored by an NBD-TM probe according to the previously described procedure (Supplementary Figure S5).[18] Briefly, to 96-well plates containing MPO, NBD-TM (40 μM), the studied compounds, phosphate buffer (100 mM, pH 7.4), and sodium chloride (0.2 M), 20 μM solution of hydrogen peroxide was added to start the reaction (mixing ratio 1:1 v/v). Then, the changes of fluorescence intensity were measured by Varioscan LUX using λex = 475 nm, λem = 575 nm, and slits width of 12 nm. This enabled the direct monitoring of fluorescent NBD-TSO formation.
The MPO inhibitory activity of AM was compared with its two synthesized boronated derivatives (Figure 1). […] In the taurine-based assay, HOCl oxidizes taurine to taurine N-chloramine. The resulting N-chloramine is then quantified in a reaction with N,N,N′,N′-tetramethylbenzidine catalyzed by potassium iodide.[20] In the case of the NBD-TM probe, in the presence of HOCl, the sulfur atom in the probe is oxidized to sulfoxide, producing a highly fluorescent NBD-TSO.[18]

[3] = Competition kinetics with FLBA: reaction with HOCl; assay type: physicochemical; settings: pH 7.4, 50 mM phosphate buffer
Procedure: (§2) The rate constants of the reactions of AMBB and AAPBA with ONOO^– and HOCl were determined by a competition kinetic method using FLBA as a reference compound.[18],[21],[22] In this approach, two pseudo-first-order reactions were assumed, a reaction between FLBA and the selected oxidant, ONOO^– or HOCl (eq 1), and between the investigated acetaminophen derivative (R-B(OH)2) and the oxidant (eq 2). Typically, the set of samples containing FLBA (20 μM), phosphate buffer (50 mM, pH 7.4), and AMBB or AAPBA (0–160 μM) in Eppendorf tubes was prepared. A concentrated basic solution of HOCl or ONOO^– was then added to the samples and rapidly mixed. The resulting concentration of an appropriate oxidant was 1.5 μM. Next, the samples were transferred to a 96-well plate, and the fluorescence intensity of the formed fluorescein was measured. The fluorescence intensity was followed with a Varioscan LUX plate reader using λex = 490 nm, λem = 515 nm, and slit widths of 12 nm.

[4] = Competition kinetics with FLBA: reaction with ONOO–; assay type: physicochemical; settings: pH 7.4, 50 mM phosphate buffer
Procedure: as §2

[5] = Pseudo-first-order kinetics of reaction with H2O2 (UPLC); assay type: physicochemical; settings: pH 7.4, 20 mM phosphate buffer, 0.2–1 mM H2O2
Procedure: The rate constants for H2O2 and the studied boronic acids were determined directly under the pseudo-first-order conditions. Typically, the incubation mixtures contained boronic acid (20 μM), phosphate buffer (20 mM), CH3CN (2.5% v/v), and at least 10-fold excess of H2O2 (0.2–1 mM). The changes of analyte concentrations were followed by UPLC using a photodiode array detector (λmax = 250 ± 1.2 nm). On the basis of kinetic traces of AMBB and AAPBA decay (Supplementary Figure S6), the pseudo-first-order rate constants were determined. The second-order rate constants were calculated using the linear relationship between the determined pseudo-first-order rate constants and H2O2 concentrations.

[6] = Spontaneous conversion of AMB-OH into acetaminophen (UPLC); assay type: physicochemical
Procedure: Ultra-performance liquid chromatograph (UPLC) Acquity (Waters Ltd.) equipped with a photodiode array detector and combined with an LCT Premier XE (Waters Ltd.) mass spectrometer was used for the chromatographic separation and identification of AMBB and AAPBA oxidation products. Separation was performed on a reversed-phase C18 UPLC column (Waters Acquity UPLC BEH C18 […], 50 × 2.1 mm) equilibrated with a water/acetonitrile (CH3CN) (90/10 v/v) mobile phase containing 0.1% (v/v) trifluoroacetic acid (TFA). The analytes were separated at a flow rate of 0.3 mL/min. During the first 0.5 min of analysis, the composition of the mobile phase remained unchanged. […] The injection volume was 2 μL, the sample temperature was 20 °C, and the column temperature was 40 °C. The electrospray source was operated at positive ion mode using the following parameters: capillary voltage 2.8 kV, sample cone voltage 60 V, desolvation temp. 350 °C, source temp. 100 °C, desolvation gas flow 800 L/h, and cone gas flow 50 L/h. The MCP detector voltage was 2.5 kV.
Figure 4 Kinetics of the conversion of AMB-OH into acetaminophen (AM). AMB-OH was produced in situ by mixing 50 μM AMBB with 50 μM NaOCl in 20 mM phosphate buffer, pH 7.4. (A) UPLC peak areas of AMB-OH (open squares) and AM (open circles) as a function of incubation time. UPLC peak areas were integrated for chromatograms extracted at 250 ± 1.2 nm. (B) Scheme of the quinone methide moiety elimination by AMB-OH to form AM. TEXT PRINTED IN THE PICTURE: (A) AM: ^1k = (1.85 ± 0.01) × 10^-4 s^-1 | (A) AMB-OH: ^1k = (2.00 ± 0.01) × 10^-4 s^-1

MPO = target: T2, MPO (Homo sapiens, UniProt P05164); experiment: MPO-dependent HOCl generation (summary values); assay type: biochemical
T2 construct: MPO from human neutrophils was obtained from Athens Research and Technology (Athens, GA); purchased Athens Research and Technology (Athens, GA); host or cells: human neutrophils (natural source)
Procedure: as §1

[7] = Solubility in MPO assay mixture; assay type: physicochemical; settings: above 0.3 mM in assay mixture, pH 7.4, 3% methanol
Procedure: For AMBB, in the range of 0 nM to 0.3 mM, no inhibition of HOCl production was observed (Figure 1A).

COX-2 = settings: reference not given; read-out: IC50 for the inhibition of COX-2; cited from earlier work
[8] = parameters: method as in PMID 3395354; settings: pH 7; cited from earlier work
[9] = cited from earlier work
[10] = parameters: method as in PMID 34884784; settings: previously reported; cited from earlier work
[11] = abstract summary, read-out: IC50 toward MPO-dependent HOCl generation

T2 sequence (P05164 279-745 limits assumed): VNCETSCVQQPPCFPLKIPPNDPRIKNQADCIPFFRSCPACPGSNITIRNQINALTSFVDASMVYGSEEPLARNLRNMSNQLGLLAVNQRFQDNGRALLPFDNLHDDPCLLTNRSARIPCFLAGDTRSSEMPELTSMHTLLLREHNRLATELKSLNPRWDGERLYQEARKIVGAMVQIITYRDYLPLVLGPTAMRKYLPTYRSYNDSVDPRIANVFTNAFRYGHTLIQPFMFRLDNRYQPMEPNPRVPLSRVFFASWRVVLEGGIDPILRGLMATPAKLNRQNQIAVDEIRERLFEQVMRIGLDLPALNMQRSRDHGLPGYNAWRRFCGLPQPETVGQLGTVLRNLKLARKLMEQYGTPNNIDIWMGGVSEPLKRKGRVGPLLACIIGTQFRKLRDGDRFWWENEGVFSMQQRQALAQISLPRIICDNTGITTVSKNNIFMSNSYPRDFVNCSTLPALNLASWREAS
T2 sequence (P05164 165-273 limits assumed): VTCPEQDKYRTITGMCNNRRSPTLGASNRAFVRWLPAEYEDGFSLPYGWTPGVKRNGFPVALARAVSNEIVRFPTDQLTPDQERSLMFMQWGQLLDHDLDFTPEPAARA
T1 sequence (P05164 279-745 limits assumed): as the sequence (P05164 279-745 limits assumed) above
T1 sequence (P05164 165-273 limits assumed): as the sequence (P05164 165-273 limits assumed) above

- time to complete conversion into AM ([6]; pH 7.4, room temperature): 5 h
- half-life ([6]; phosphate buffer, pH 7.4, pH 7.4, room temperature, read-out: half-life time (converted)): 1 h
Compound: CC(=O)Nc1ccc(OCc2ccc(O)cc2)cc1 [AMB-OH, N-[4-(4-hydroxybenzyloxy)phenyl]acetamide]

- IC50 (MPO; [11]): > 300 µM
- solubility [7]: limited solubility and precipitation
Compound: CC(=O)Nc1ccc(OCc2ccc(B(O)O)cc2)cc1 [AMBB, (4-((4-Acetamidophenoxy)methyl)phenyl)-boronic Acid]
- inhibition of HOCl production ([1]; in the presence of taurine, 0 nM to 0.3 mM compound): no inhibition; also recorded: not show any inhibitory activity; also recorded: failed to inhibit the chlorination cycle
- inhibitory effect on HOCl production activity of MPO ([2]; no taurine, effect seen in the 0.1–0.3 mM range): shows the inhibitory effects; also recorded: exhibits inhibitory activity
- second-order rate constant of reaction with H2O2 [5]: 1.67 M^–1 s^–1 and 1.67 ± 0.02 M^–1 s^–1

More lines, now with the values behind:

Compound: CC(=O)Nc1ccc(B(O)O)cc1 [AAPBA, 4-Acetamidophenylboronic Acid]
- IC50 [1]: 420 ± 60 µM
- IC50 [2]: 394 ± 2 µM
- second-order rate constant of reaction with HOCl [3]: (1.72 ± 0.01) × 10^4 M^–1 s^–1
- second-order rate constant of reaction with ONOO– [4]: (1.1 ± 0.3) × 10^6 M^–1 s^–1
- second-order rate constant of reaction with H2O2 [5]: 1.9 ± 0.1 M^–1 s^–1

Compound: CC(=O)Nc1ccc(O)cc1 [Acetaminophen, N-(4-hydroxyphenyl)acetamide]
- IC50 [1]: 153 ± 9 µM
- IC50 [2]: 135 ± 9 µM
- IC50 (MPO; [11]): 140 µM
- IC50 (MPO; rounded value in discussion, read-out: IC50 for the inhibition of MPO): 150 µM
- first-order rate constant of AM build-up from AMB-OH ([6]; pH 7.4, 20 mM phosphate buffer): (1.85 ± 0.01) × 10^-4 s^-1
- electrode potential E°′ (AM-OH/AM-O·,H+ redox couple) [8]: 0.71 ± 0.01 V

Compound: O=C(O)c1ccccc1-c1c2ccc(=O)cc-2oc2cc(B(O)O)ccc12 [FLBA, reference compound]
- rate constant of reaction with HOCl ([9]; previously reported): 1.11 × 10^4 M^–1 s^–1
- rate constant of reaction with ONOO– [10]: 1.0 × 10^6 M^–1 s^–1

Compound: O=c1[nH]c(=O)c2[nH]c(=O)[nH]c2[nH]1 [uric acid]
- bimolecular rate constant of reaction with HOCl ([9]; pH 7): 3 × 10^5 M^–1 s^–1

From PMC10445283, “Boronate-Based Oxidant-Responsive Derivatives of Acetaminophen as Proinhibitors of Myeloperoxidase” (Chemical Research in Toxicology, 2023)
